Results as given in patent publication US10670605B2, “Cysteine reactive probes and uses thereof” (The Scripps Research Institute, priority 2015, dated 2020).

Assays:
Test in all cases: Competitive isoTOP-ABPP, cell lysates
Type in all cases: binding
ZNF217 C286 (O75362) = ZNF217 C286 (O75362) (Homo sapiens, UniProt O75362); settings: for isoTOP-ABPP ratio O75362_C286: 500 μM, invitro
GNB2L1 C182 (P63244) = GNB2L1 C182 (P63244) (Homo sapiens, UniProt P63244); settings: for isoTOP-ABPP ratio, P63244_C182: 500 μM, invitro
UCHL3 C95 (P15374) = target: T1, UCHL3 C95 (P15374) (Homo sapiens, UniProt P15374); settings: for isoTOP-ABPP ratio, P15374_C95: 500 μM, invitro
T1 sequence (P15374 1-230): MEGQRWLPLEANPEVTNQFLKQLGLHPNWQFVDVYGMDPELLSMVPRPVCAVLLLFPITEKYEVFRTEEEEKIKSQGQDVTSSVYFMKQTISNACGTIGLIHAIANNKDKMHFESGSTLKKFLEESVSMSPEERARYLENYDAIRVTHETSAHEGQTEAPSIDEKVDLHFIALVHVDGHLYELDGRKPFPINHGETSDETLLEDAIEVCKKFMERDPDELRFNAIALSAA

UBE2L3 C86 (P68036) = UBE2L3 C86 (P68036) (Homo sapiens, UniProt P68036); settings: for isoTOP-ABPP ratio, P68036_C86: 500 μM, invitro
GSTP1 C48 (P09211) = GSTP1 C48 (P09211) (Homo sapiens, UniProt P09211); settings: for isoTOP-ABPP ratio, P09211_C48: 500 μM, invitro
SAMHD1 C522 (Q9Y3Z3) = SAMHD1 C522 (Q9Y3Z3) (Homo sapiens, UniProt Q9Y3Z3); settings: for isoTOP-ABPP ratio, Q9Y3Z3_C522: 500 μM, invitro, 231
PRMT1 C109 (Q99873) = PRMT1 C109 (Q99873) (Homo sapiens, UniProt Q99873); settings: for isoTOP-ABPP ratio, Q99873_C109: 500 μM, invitro
PDIA6 C190 (Q15084) = target: T2, PDIA6 C190 (Q15084) (Homo sapiens, UniProt Q15084); settings: for isoTOP-ABPP ratio, Q15084_C190: 500 μM, invitro
T2 sequence (Q15084 20-440): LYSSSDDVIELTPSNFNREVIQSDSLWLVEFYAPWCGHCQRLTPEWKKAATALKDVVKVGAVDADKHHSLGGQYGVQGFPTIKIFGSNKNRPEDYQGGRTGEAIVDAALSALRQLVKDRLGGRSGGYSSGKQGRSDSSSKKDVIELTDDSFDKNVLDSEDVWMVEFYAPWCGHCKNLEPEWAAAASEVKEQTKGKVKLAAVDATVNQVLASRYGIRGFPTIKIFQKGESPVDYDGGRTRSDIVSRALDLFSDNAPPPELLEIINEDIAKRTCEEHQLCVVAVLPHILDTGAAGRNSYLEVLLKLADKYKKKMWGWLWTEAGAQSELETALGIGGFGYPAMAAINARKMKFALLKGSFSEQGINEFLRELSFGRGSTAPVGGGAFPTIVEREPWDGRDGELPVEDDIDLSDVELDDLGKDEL

SMARCC2 C145 (Q8TAQ2) = SMARCC2 C145 (Q8TAQ2) (Homo sapiens, UniProt Q8TAQ2); settings: for isoTOP-ABPP ratio Q8TAQ2_C145: 500 μM, invitro
AIP C122 (O00170) = target: T3, AIP C122 (O00170) (Homo sapiens, UniProt O00170); settings: for isoTOP-ABPP ratio, O00170_C122: 500 μM, invitro, ramos
T3 sequence (O00170 1-330): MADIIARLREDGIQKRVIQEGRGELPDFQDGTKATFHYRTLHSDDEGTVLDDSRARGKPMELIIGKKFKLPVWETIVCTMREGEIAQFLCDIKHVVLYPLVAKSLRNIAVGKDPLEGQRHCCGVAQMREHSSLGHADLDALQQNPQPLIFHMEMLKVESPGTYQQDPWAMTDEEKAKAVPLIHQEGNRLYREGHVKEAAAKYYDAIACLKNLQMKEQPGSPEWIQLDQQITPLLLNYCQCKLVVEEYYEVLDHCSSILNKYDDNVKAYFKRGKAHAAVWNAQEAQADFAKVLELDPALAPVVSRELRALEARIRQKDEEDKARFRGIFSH

Cn1cc(S(=O)(=O)N2CCOCC2)cc1C(=O)NC(=O)CCl [compound 11]
isoTOP-ABPP ratio O75362_C286 (ZNF217 C286 (O75362); 231): 1.2 | isoTOP-ABPP ratio O75362_C286 (ZNF217 C286 (O75362); ramos): 1.2 | isoTOP-ABPP ratio, P63244_C182 (GNB2L1 C182 (P63244); 231): 1.0 | isoTOP-ABPP ratio, P63244_C182 (GNB2L1 C182 (P63244); ramos): 1.1 | isoTOP-ABPP ratio, P15374_C95 (UCHL3 C95 (P15374); 231): 0.8 | isoTOP-ABPP ratio, P15374_C95 (UCHL3 C95 (P15374); ramos): 0.8 | isoTOP-ABPP ratio, P68036_C86 (UBE2L3 C86 (P68036); ramos): 1.0 | isoTOP-ABPP ratio, P09211_C48 (GSTP1 C48 (P09211); 231): 1.7 | isoTOP-ABPP ratio, P09211_C48 (GSTP1 C48 (P09211); ramos): 1.1 | isoTOP-ABPP ratio, Q9Y3Z3_C522 (SAMHD1 C522 (Q9Y3Z3)): 2.1 | isoTOP-ABPP ratio, Q99873_C109 (PRMT1 C109 (Q99873); 231): 20.0 | isoTOP-ABPP ratio, Q99873_C109 (PRMT1 C109 (Q99873); ramos): 20.0 | blockade of IA-alkyne labeling of C109 of PRMT1 (PRMT1 C109 (Q99873); competitive isoTOP-ABPP): blocking IA-alkyne labeling | isoTOP-ABPP ratio, Q15084_C190 (PDIA6 C190 (Q15084); 231): 20.0 | isoTOP-ABPP ratio, Q15084_C190 (PDIA6 C190 (Q15084); ramos): 20.0 | isoTOP-ABPP ratio Q8TAQ2_C145 (SMARCC2 C145 (Q8TAQ2); 231): 20.0 | isoTOP-ABPP ratio, O00170_C122 (AIP C122 (O00170)): 2.8

O=C(CCl)NCCc1c[nH]c2ccccc12 [compound 13]
isoTOP-ABPP ratio O75362_C286 (ZNF217 C286 (O75362); 231): 0.9 | isoTOP-ABPP ratio O75362_C286 (ZNF217 C286 (O75362); ramos): 0.9 | isoTOP-ABPP ratio, P63244_C182 (GNB2L1 C182 (P63244); 231): 1.4 | isoTOP-ABPP ratio, P63244_C182 (GNB2L1 C182 (P63244); ramos): 0.8 | isoTOP-ABPP ratio, P15374_C95 (UCHL3 C95 (P15374); ramos): 0.8 | isoTOP-ABPP ratio, P68036_C86 (UBE2L3 C86 (P68036); 231): 1.1 | isoTOP-ABPP ratio, P68036_C86 (UBE2L3 C86 (P68036); ramos): 0.8 | isoTOP-ABPP ratio, P09211_C48 (GSTP1 C48 (P09211); 231): 1.5 | isoTOP-ABPP ratio, P09211_C48 (GSTP1 C48 (P09211); ramos): 1.2 | isoTOP-ABPP ratio, Q9Y3Z3_C522 (SAMHD1 C522 (Q9Y3Z3)): 0.8 | isoTOP-ABPP ratio, Q99873_C109 (PRMT1 C109 (Q99873); 231): 1.0 | isoTOP-ABPP ratio, Q99873_C109 (PRMT1 C109 (Q99873); ramos): 0.9 | isoTOP-ABPP ratio, Q15084_C190 (PDIA6 C190 (Q15084); 231): 1.5 | isoTOP-ABPP ratio, Q15084_C190 (PDIA6 C190 (Q15084); ramos): 1.3 | isoTOP-ABPP ratio Q8TAQ2_C145 (SMARCC2 C145 (Q8TAQ2); ramos): 0.8 | isoTOP-ABPP ratio, O00170_C122 (AIP C122 (O00170)): 0.9

O=C(CCl)N1CCN(CC(=O)N2CCOCC2)CC1 [compound 29]
isoTOP-ABPP ratio (reactivity profile), O75362_C286 (ZNF217 C286 (O75362); 500 μm in-vitro ramos_231): 0.9 | isoTOP-ABPP ratio (reactivity profile), P63244_C182 (GNB2L1 C182 (P63244); 500 μm in-vitro ramos): 1.2 | isoTOP-ABPP ratio (reactivity profile), P63244_C182 (GNB2L1 C182 (P63244); 500 μm in-vitro ramos_231): 1.3 | isoTOP-ABPP ratio (reactivity profile), P15374_C95 (UCHL3 C95 (P15374); 500 μm in-vitro ramos): 1.0 | isoTOP-ABPP ratio (reactivity profile), P15374_C95 (UCHL3 C95 (P15374); 500 μm in-vitro ramos_231): 0.9 | isoTOP-ABPP ratio (reactivity profile), P68036_C86 (UBE2L3 C86 (P68036); 500 μm in-vitro ramos): 1.5 | isoTOP-ABPP ratio (reactivity profile), P68036_C86 (UBE2L3 C86 (P68036); 500 μm in-vitro ramos_231): 0.9 | isoTOP-ABPP ratio (reactivity profile), P09211_C48 (GSTP1 C48 (P09211); 500 μm in-vitro ramos): 0.4 | isoTOP-ABPP ratio (reactivity profile), P09211_C48 (GSTP1 C48 (P09211); 500 μm in-vitro ramos_231): 1.0 | isoTOP-ABPP ratio (reactivity profile), Q9Y3Z3_C522 (SAMHD1 C522 (Q9Y3Z3); 500 μm in-vitro ramos_231): 1.5 | isoTOP-ABPP ratio (reactivity profile), Q99873_C109 (PRMT1 C109 (Q99873); 500 μm in-vitro ramos): 0.9 | isoTOP-ABPP ratio (reactivity profile), Q99873_C109 (PRMT1 C109 (Q99873); 500 μm in-vitro ramos_231): 1.0 | isoTOP-ABPP ratio (reactivity profile), Q15084_C190 (PDIA6 C190 (Q15084); 500 μm in-vitro ramos_231): 1.2 | isoTOP-ABPP ratio (reactivity profile), Q8TAQ2_C145 (SMARCC2 C145 (Q8TAQ2); 500 μm in-vitro ramos_231): 1.0 | isoTOP-ABPP ratio (reactivity profile), O00170_C122 (AIP C122 (O00170); 500 μm in-vitro ramos): 1.3
